The structures appear in SMILES notation.

For this test, the system named is ER-alpha MCF7. Briefly: ER-alpha MCF7 HCS EC50; stated as measured by in vitro cell proliferation assays of Examples 902 and 903. It counts as cell-based. As to conditions: Homo sapiens, MCF7, MCF7 cells; Table 2. The gist of the method: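 MCF7 cells seeded 1000-2000 cells/well for 16 h, then treated with nine-point 1:2 DMSO dilution series in quadruplicate at 37 °C, 5% CO2 for 4 days. Viable cells quantified by CellTiter-Glo ATP luminescence; EC50 calculated. Controls: fulvestrant at final 100 nM, DMSO 0.2% v/v.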
By EC50 is commonly meant the concentration giving half of the maximal effect. `C[C@@H]1Cc2c([nH]c3ccccc23)[C@@H](c2cnc(OC3CN(CCCF)C3)nc2)N1CC(C)(C)F` [Example 377, (1R,3R)-2-(2-fluoro-2-methylpropyl)-1-(2-((1-(3-fluoropropyl)azetidin-3-yl)oxy)pyrimidin-5-yl)-3-methyl-2,3,4,9-tetrahydro-1H-pyrido[3,4-b]indole]: the EC50 amounted to 0.5 nM.

With `C[C@@H]1Cc2c([nH]c3ccccc23)[C@@H](c2c(F)cc(OC3CN(CCCCF)C3)cc2F)N1CC(C)(C)F` [Example 337, (1R,3R)-1-[2,6-difluoro-4-[1-(4-fluorobutyl)azetidin-3-yl]oxy-phenyl]-2-(2-fluoro-2-methyl-propyl)-3-methyl-1,3,4,9-tetrahydropyrido[3,4-b]indole], the concentration for a half-maximal effect (EC50) is 0.387 nM.

Consider `C[C@@H]1Cc2c([nH]c3ccccc23)[C@@H](c2c(F)cc(OC3(C)CN(CCCF)C3)cc2F)N1CC(C)(C)F` [Example 343, (1R,3R)-1-(2,6-difluoro-4-((1-(3-fluoropropyl)-3-methylazetidin-3-yl)oxy)phenyl)-2-(2-fluoro-2-methylpropyl)-3-methyl-2,3,4,9-tetrahydro-1H-pyrido[3,4-b]indole], for which the EC50 amounted to 0.2 nM.

Turning to `C[C@H]1Cc2c([nH]c3ccc(F)cc23)[C@@H](c2c(F)cc(NC3CN(CCCF)C3)cc2F)N1C[C@@](C)(F)CO` [Example 434, (R)-3-((1R,3S)-1-(2,6-difluoro-4-((1-(3-fluoropropyl)azetidin-3-yl)amino)phenyl)-6-fluoro-3-methyl-1,3,4,9-tetrahydro-2H-pyrido[3,4-b]indol-2-yl)-2-fluoro-2-methylpropan-1-ol], the EC50 was found to be 0.706 nM.

As to `C[C@@H]1Cc2c([nH]c3ccccc23)[C@@H](c2c(F)cc(OCCN3CC(CCl)C3)cc2F)N1CC(C)(C)F` [Example 265, (1R,3R)-1-[4-[2-[3-(chloromethyl)azetidin-1-yl]ethoxy]-2,6-difluoro-phenyl]-2-(2-fluoro-2-methyl-propyl)-3-methyl-1,3,4,9-tetrahydropyrido[3,4-b]indole], the concentration giving a half-maximal response (EC50) amounted to 1.7 nM.

In the case of `C[C@@H]1CCN([C@@H](C)COc2cc(F)c([C@@H]3c4[nH]c5ccccc5c4C[C@@H](C)N3CC(C)(C)F)c(F)c2)C1` [Example 184], the EC50 is 0.494 nM.

With `C[C@@H]1Cc2c([nH]c3ccc(F)cc23)[C@@H](c2c(F)cc(OC3CN(CCCF)C3)cc2F)N1C[C@@](C)(F)CO` [Example 370, 3-((1R,3R)-1-(2,6-difluoro-4-((1-(3-fluoropropyl)azetidin-3-yl)oxy)phenyl)-6-fluoro-3-methyl-1,3,4,9-tetrahydro-2H-pyrido[3,4-b]indol-2-yl)-2-fluoro-2-methylpropan-1-ol], the EC50 was 0.203 nM.

Consider `C[C@H]1Cc2c([nH]c3c(F)cccc23)[C@H](c2c(F)cc(NC3CN(CCCF)C3)cc2F)N1CC(F)(F)F` [Example 409, N-(3,5-difluoro-4-((1S,3S)-8-fluoro-3-methyl-2-(2,2,2-trifluoroethyl)-2,3,4,9-tetrahydro-1H-pyrido[3,4-b]indol-1-yl)phenyl)-1-(3-fluoropropyl)azetidin-3-amine], for which the EC50 was 26 nM.

For `C[C@@H]1Cc2c([nH]c3ccccc23)[C@@H](c2ccc(OC3CN(CCCF)C3)cc2C#N)N1CC(C)(C)F` [Example 344, 2-[(1R,3R)-2-(2-fluoro-2-methyl-propyl)-3-methyl-1,3,4,9-tetrahydropyrido[3,4-b]indol-1-yl]-5-[1-(3-fluoropropyl)azetidin-3-yl]oxy-benzonitrile], the EC50 worked out at 0.347 nM.

Take `CCCN1CC(COc2cc(F)c([C@@H]3c4[nH]c5ccccc5c4C[C@@H](C)N3CC(C)(C)F)c(F)c2)C1` [Example 152, (1R,3R)-1-[2,6-difluoro-4-[(1-propylazetidin-3-yl)methoxy]phenyl]-2-(2-fluoro-2-methyl-propyl)-3-methyl-1,3,4,9-tetrahydropyrido[3,4-b]indole]: the EC50 was 0.362 nM.

For `C[C@@H]1Cc2c([nH]c3c(F)cc(F)cc23)[C@@H](c2c(F)cc(OC3CN(CCCF)C3)cc2F)N1CC(C)(C)F` [Example 424, (1R,3R)-1-(2,6-difluoro-4-(1-(3-fluoropropyl)azetidin-3-yloxy)phenyl)-6,8-difluoro-2-(2-fluoro-2-methylpropyl)-3-methyl-2,3,4,9-tetrahydro-1H-pyrido[3,4-b]indole], the half-maximal effective concentration (EC50) stood at 0.5 nM.

Turning to `CC(O)CC(=O)N1[C@H](c2c(F)cc(OCCN3CC(CF)C3)cc2F)c2[nH]c3ccccc3c2C[C@H]1C` (stereo partly drawn) [Example 212, 1-((1R,3R)-1-(2,6-difluoro-4-(2-(3-(fluoromethyl)azetidin-1-yl)ethoxy)phenyl)-3-methyl-3,4-dihydro-1H-pyrido[3,4-b]indol-2(9H)-yl)-3-hydroxybutan-1-one], the EC50 came out at 1 nM.

Consider `C[C@@H]1Cc2c([nH]c3ccccc23)[C@@H](c2c(F)cc(OCCN3CC(CF)C3)cc2F)N1C[C@H](CO)CF` [Example 402, (R)-3-((1R,3R)-1-(2,6-difluoro-4-(2-(3-(fluoromethyl)azetidin-1-yl)ethoxy)phenyl)-3-methyl-3,4-dihydro-1H-pyrido[3,4-b]indol-2(9H)-yl)-2-(fluoromethyl)propan-1-ol], for which the EC50 came out at 0.032 nM.

Regarding `C[C@@H]1Cc2c([nH]c3ccccc23)[C@@H](c2c(F)cc(OC3CN(CCCF)C3)cc2F)N1CC(F)(F)CO` [Example 302, 3-((1R,3R)-1-(2,6-difluoro-4-((1-(3-fluoropropyl)azetidin-3-yl)oxy)phenyl)-3-methyl-3,4-dihydro-1H-pyrido[3,4-b]indol-2(9H)-yl)-2,2-difluoropropan-1-ol], the EC50 was found to be 0.12 nM.

With `C[C@H]1Cc2c([nH]c3ccc(F)cc23)[C@H](c2c(F)cc(OC3CN(CCCF)C3)cc2F)N1C[C@@](C)(F)CO` [Example 369, 3-((1S,3S)-1-(2,6-difluoro-4-((1-(3-fluoropropyl)azetidin-3-yl)oxy)phenyl)-6-fluoro-3-methyl-1,3,4,9-tetrahydro-2H-pyrido[3,4-b]indol-2-yl)-2-fluoro-2-methylpropan-1-ol], the EC50 stood at 24 nM.

Regarding `CC(C)(F)CN1CCc2c([nH]c3ccccc23)C1c1c(F)cc(OCCN2CC(CF)C2)cc1F` (stereo not shown) [Example 178, 1-[2,6-difluoro-4-[2-[3-(fluoromethyl)azetidin-1-yl]ethoxy]phenyl]-2-(2-fluoro-2-methyl-propyl)-1,3,4,9-tetrahydropyrido[3,4-b]indole], the EC50 came out at 0.5 nM.

Turning to `C[C@@H]1Cc2c([nH]c3ccccc23)[C@@H](c2c(F)cc(OCCN3CC(CF)C3)cc2F)N1CC1(F)COC1` [Example 136, (1R,3R)-1-[2,6-difluoro-4-[2-[3-(fluoromethyl)azetidin-1-yl]ethoxy]phenyl]-2-[(3-fluorooxetan-3-yl)methyl]-3-methyl-1,3,4,9-tetrahydropyrido[3,4-b]indole], the EC50 was found to be 0.114 nM.

Consider `C[C@H](CF)C(=O)N1[C@H](c2c(F)cc(OCCN3CC(CF)C3)cc2F)c2[nH]c3ccccc3c2C[C@H]1C` [Example 218, (S)-1-((1R,3R)-1-(2,6-difluoro-4-(2-(3-(fluoromethyl)azetidin-1-yl)ethoxy)phenyl)-3-methyl-1,3,4,9-tetrahydro-2H-pyrido[3,4-b]indol-2-yl)-3-fluoro-2-methylpropan-1-one], for which the EC50 amounted to 0.402 nM.

Regarding `C[C@@H]1Cc2c([nH]c3ccccc23)[C@@H](c2c(F)cc(NCCN3CC(CF)C3)cc2F)N1C[C@](C)(F)CO` [Example 353, (S)-3-((1R,3R)-1-(2,6-difluoro-4-((2-(3-(fluoromethyl)azetidin-1-yl)ethyl)amino)phenyl)-3-methyl-1,3,4,9-tetrahydro-2H-pyrido[3,4-b]indol-2-yl)-2-fluoro-2-methylpropan-1-ol], the EC50 came to 0.033 nM.

For the compound `C[C@@H]1Cc2c([nH]c3ccccc23)[C@@H](c2c(F)cc(NCCN3CC(CF)C3)cc2F)N1S(C)(=O)=O` [Example 326, 3,5-difluoro-N-[2-[3-(fluoromethyl)azetidin-1-yl]ethyl]-4-[(1R,3R)-3-methyl-2-methylsulfonyl-1,3,4,9-tetrahydropyrido[3,4-b]indol-1-yl]aniline], the EC50 turned out to be 0.305 nM.

As for `C[C@H]1Cc2c([nH]c3ccc(F)cc23)[C@H](c2c(F)cc(OC3CN(CCCF)C3)cc2F)N1CC(F)(F)F` [Example 357, (1S,3S)-1-(2,6-difluoro-4-((1-(3-fluoropropyl)azetidin-3-yl)oxy)phenyl)-6-fluoro-3-methyl-2-(2,2,2-trifluoroethyl)-2,3,4,9-tetrahydro-1H-pyrido[3,4-b]indole], the EC50 turned out to be 26.1 nM.

For `C[C@@H]1Cc2c([nH]c3ccccc23)[C@@H](c2c(F)cc(SC3CN(CCCF)C3)cc2F)N1CC(C)(C)F` [Example 196, (1R,3R)-1-[2,6-difluoro-4-[1-(3-fluoropropyl)azetidin-3-yl]sulfanyl-phenyl]-2-(2-fluoro-2-methyl-propyl)-3-methyl-1,3,4,9-tetrahydropyrido[3,4-b]indole], the half-maximal effective concentration (EC50) came to 0.271 nM.

With `C[C@@H]1Cc2c([nH]c3ccccc23)[C@@H](c2ccc([C@@H](O)C3CN(CCCF)C3)cc2)N1CC(C)(C)F` [Example 380, (S)-(4-((1R,3R)-2-(2-fluoro-2-methylpropyl)-3-methyl-2,3,4,9-tetrahydro-1H-pyrido[3,4-b]indol-1-yl)phenyl)(1-(3-fluoropropyl)azetidin-3-yl)methanol], the EC50 stood at 0.188 nM.

As to `C[C@@H]1Cc2c([nH]c3c(F)cccc23)[C@@H](c2c(F)cc(NC3CN(CCCF)C3)cc2F)N1CC(F)(F)F` [Example 410, N-(3,5-difluoro-4-((1R,3R)-8-fluoro-3-methyl-2-(2,2,2-trifluoroethyl)-2,3,4,9-tetrahydro-1H-pyrido[3,4-b]indol-1-yl)phenyl)-1-(3-fluoropropyl)azetidin-3-amine], the EC50 amounted to 0.12 nM.

Turning to `C[C@@H]1Cc2c([nH]c3ccccc23)[C@@H](c2c(F)cc(OCCN3CC(CF)C3)cc2F)N1C[C@H](F)CO` [Example 394, (S)-3-((1R,3R)-1-(2,6-difluoro-4-(2-(3-(fluoromethyl)azetidin-1-yl)ethoxy)phenyl)-3-methyl-3,4-dihydro-1H-pyrido[3,4-b]indol-2(9H)-yl)-2-fluoropropan-1-ol], the EC50 stood at 0.23 nM.

The values above are taken from patent US20250114338A1, “TETRAHYDRO-PYRIDO[3,4-b]INDOLE ESTROGEN RECEPTOR MODULATORS AND USES THEREOF” (Genentech, Inc., priority 2014, published 2025).
